Measured values from patent US20070059364A1, “Active substance combination comprising a compound with npy receptor affinity and a compound with 5-ht6 receptor affinity” (Laboratorios Del Dr. Esteve S.A., priority 2003, published 2007).

Compound | melting point
Cl.O=C(CN1CCC(N2C(=O)OCc3ccccc32)CC1)Nc1ccc2c(c1)CCC2=O | 272 to 277 °C
Cl.O=C(CN1CCC(N2C(=O)OCc3ccccc32)CC1)Nc1ccc2c(c1)CCC2 | 230 to 231 °C
CC(C(=O)Nc1ccc2c(c1)-c1ccccc1C2=O)N1CCC(N2C(=O)OCc3ccccc32)CC1.Cl (centres unmarked) | 242 to 252 °C
Cc1ccc2c(c1)COC(=O)N2C1CCN(CC(=O)Nc2ccc3c(c2)-c2ccccc2C3=O)CC1 | 237 to 239 °C
Cc1ccc2c(c1)COC(=O)N2C1CCN(CC(=O)Nc2ccc(C3CCCCC3)cc2)CC1 | 155 to 157 °C
Cc1ccc2c(c1)COC(=O)N2C1CCN(CC(=O)Nc2ccc(C3CCCCC3)cc2)CC1.Cl | 242 to 246 °C
Cl.O=C(CN1CCC(N2C(=O)OCc3ccccc32)CC1)Nc1ccc2c(c1)C(=O)c1ccccc1C2=O | 280 to 282 °C
Cl.O=C(CN1CCC(N2C(=O)OCc3ccccc32)CC1)Nc1ccc(Oc2ccccc2)cc1 | 242 to 248 °C
Cl.O=C(CN1CCC(N2C(=O)OCc3ccccc32)CC1)Nc1ccc(Cl)cc1 | 272 to 276 °C
Cl.O=C(CN1CCC(N2C(=O)OCc3cc(Cl)ccc32)CC1)Nc1ccc(Cl)cc1 | 279 to 282 °C
Cl.O=C(CN1CCC(N2C(=O)OCc3cc(Cl)ccc32)CC1)Nc1ccc2c(c1)-c1ccccc1C2=O | 245 to 249 °C
Cc1cccc2c1N(C1CCN(CC(=O)Nc3ccc4c(c3)-c3ccccc3C4O)CC1)C(=O)OC2.Cl (centres unmarked) | 207 to 212 °C
Cl.O=C(CN1CCC(N2C(=O)OCc3ccccc32)CC1)Nc1ccc2c(c1)C(O)c1ccccc1-2 (centres unmarked) | > 225 °C (dec.)
Cl.O=C(CN1CCC(N2C(=O)OCc3cc(Cl)ccc32)CC1)Nc1ccc2c(c1)-c1ccccc1C2O (centres unmarked) | 219 to 222 °C
Cc1cccc2c1N(C1CCN(CC(=O)Nc3ccc(C(F)(F)F)cc3)CC1)C(=O)OC2.Cl | 264 to 274 °C
Cc1cccc2c1N(C1CCN(CC(=O)Nc3ccccc3)CC1)C(=O)OC2.Cl | 232 to 239 °C
Cl.O=C(CN1CCC(N2C(=O)OCc3ccccc32)CC1)Nc1ccc(C(F)(F)F)cc1 | 276 to 284 °C
Cl.O=C(CN1CCC(N2C(=O)OCc3cc(Cl)ccc32)CC1)Nc1ccc(C(F)(F)F)cc1 | 284 to 285 °C
Cl.O=C(CN1CCC(N2C(=O)OCc3ccccc32)CC1)Nc1ccccc1 | 262 to 272 °C
Cc1cccc2c1N(C1CCN(CC(=O)Nc3ccc(Cl)cc3)CC1)C(=O)OC2.Cl | 245 to 253 °C
Cc1cccc2c1N(C1CCN(CC(=O)Nc3ccc(C#N)cc3)CC1)C(=O)OC2.Cl | 229 to 234 °C
Cl.N#Cc1ccc(NC(=O)CN2CCC(N3C(=O)OCc4cc(Cl)ccc43)CC2)cc1 | 274 to 278 °C
Cc1ccc2c(c1)COC(=O)N2C1CCN(CC(=O)Nc2ccccc2Cl)CC1 | 146 to 148 °C
Cc1ccc2c(c1)COC(=O)N2C1CCN(CC(=O)Nc2ccccc2C(F)(F)F)CC1 | 169 to 173 °C

Compound | melting point
Cc1ccc2c(c1)COC(=O)N2C1CCN(CC(=O)Nc2ccccc2)CC1 | 154 to 157 °C
Cc1cccc2c1N(C1CCN(CC(=O)Nc3ccc(C4CCCCC4)cc3)CC1)C(=O)OC2.Cl | 249 to 253 °C
Cl.O=C(CN1CCC(N2C(=O)OCc3cc(Cl)ccc32)CC1)Nc1ccc(C2CCCCC2)cc1 | 249 to 256 °C
Cl.O=C(CN1CCC(N2C(=O)OCc3ccccc32)CC1)Nc1ccccc1C(=O)c1ccccc1 | 211 to 216 °C
Cc1cccc2c1N(C1CCN(CC(=O)Nc3ccccc3C(=O)c3ccccc3)CC1)C(=O)OC2.Cl | 168 to 176 °C
Cl.O=C(CN1CCC(N2C(=O)OCc3cc(Cl)ccc32)CC1)Nc1ccccc1C(=O)c1ccccc1 | 167 to 178 °C
Cc1ccc2c(c1)COC(=O)N2C1CCN(CC(=O)Nc2ccccc2C(=O)c2ccccc2)CC1 | 167 to 170 °C
Cl.O=C(CN1CCC(N2C(=O)OCc3ccccc32)CC1)Nc1ccc2c(c1)-c1ccccc1C2O (centres unmarked) | 270 to 273 °C
Cl.O=C(CN1CCC(N2C(=O)OCc3cc(Cl)ccc32)CC1)Nc1ccc2c(c1)C(=O)c1ccccc1-2 | > 300 °C (dec.)
Cc1cccc2c1N(C1CCN(CC(=O)Nc3ccc4c(c3)C(=O)c3ccccc3-4)CC1)C(=O)OC2.Cl | > 300 °C (dec.)
Cl.O=C(CN1CCC(N2C(=O)OCc3cc(Cl)ccc32)CC1)Nc1ccc2c(c1)C(O)c1ccccc1-2 (centres unmarked) | 286 to 289 °C
Cc1ccc2c(c1)COC(=O)N2C1CCN(CC(=O)Nc2ccc3c(c2)C(O)c2ccccc2-3)CC1.Cl (centres unmarked) | 196 to 199 °C
Cc1cccc2c1N(C1CCN(CC(=O)Nc3ccc4c(c3)C(O)c3ccccc3-4)CC1)C(=O)OC2.Cl (centres unmarked) | 283 to 285 °C
Cc1ccc2c(c1)COC(=O)N2C1CCN(CC(=O)Nc2ccc3c(c2)-c2ccccc2C3O)CC1.Cl (centres unmarked) | 238 to 241 °C
Cl.O=C(CN1CCC(N2C(=O)OCc3ccccc32)CC1)Nc1cccc2c1-c1ccccc1C2=O | 270 to 273 °C
O=C(CN1CCC(N2C(=O)OCc3ccc(Cl)cc32)CC1)Nc1ccc2oc3ccccc3c2c1 | 237 °C
O=C(CN1CCC(N2C(=O)OCc3cc(F)ccc32)CC1)Nc1ccc2c(c1)-c1ccccc1C2=O | 237 °C
Cc1cccc2c1COC(=O)N2C1CCN(CC(=O)Nc2ccc3[nH]c4ccccc4c3c2)CC1 | 213 °C
O=C(CN1CCC(N2C(=O)OCc3c(F)cccc32)CC1)Nc1ccc2[nH]c3ccccc3c2c1 | 195 °C
Cc1ccc2c(c1)N(C1CCN(CC(=O)Nc3ccc4c(c3)-c3ccccc3C4O)CC1)C(=O)OC2 (centres unmarked) | 136 °C
Cc1cccc2c1COC(=O)N2C1CCN(CC(=O)Nc2ccc3oc4ccccc4c3c2)CC1 | 204 °C
O=C(CN1CCC(N2C(=O)OCc3ccccc32)CC1)Nc1cccc2c1-c1ccccc1C2O (centres unmarked) | 209 to 210 °C
O=C1OCc2ccccc2N1C1CCN(S(=O)(=O)c2cccc(Cl)c2Cl)CC1 | 185 to 187 °C

Results, then the compound that gave them:

melting point | Compound
244 to 245 °C (dec.) | CN1CC=C(c2c[nH]c3ccc(NS(=O)(=O)c4cccc5ccccc45)cc23)CC1
108 to 111 °C | CN(C)CCn1ccc2cc(NS(=O)(=O)/C=C/c3ccccc3)ccc21
247 to 252 °C | CCn1c2ccccc2c2cc(NC(=O)CN3CCC(N4C(=O)OCc5cc(C)ccc54)CC3)ccc21.Cl
240 to 244 °C | Cc1ccc2c(c1)COC(=O)N2C1CCN(CC(=O)Nc2ccc(C(=O)c3ccccc3)cc2)CC1.Cl
152 to 154 °C | CN(C)CCc1c[nH]c2ccc(NS(=O)(=O)c3ccc(Oc4ccccc4)cc3)cc12
191 to 193 °C | Cl.Cn1c2ccccc2c2cc(NC(=O)CN3CCC(N4C(=O)OCc5ccccc54)CC3)ccc21
49 to 50 °C | CCN(CC)CCc1c[nH]c2ccc(N(CC)S(=O)(=O)c3ccc4ccccc4c3)cc12
254 to 257 °C | CCN(c1ccccc1)c1ccc(NC(=O)CN2CCC(N3C(=O)OCc4ccccc43)CC2)cc1.Cl
200 to 201 °C | Cc1c(S(=O)(=O)Nc2ccc3[nH]cc(CCN4CCOCC4)c3c2)sc2ccc(Cl)cc12
218 to 220 °C | O=S(=O)(Nc1ccc2[nH]cc(CCN3CCOCC3)c2c1)c1cccc2ccccc12
97 to 104 °C | CCN(CC)CCn1ccc2cc(NS(=O)(=O)c3ccc4ccccc4c3)ccc21
170 °C | CCN(CC)CCc1c[nH]c2ccc(NS(=O)(=O)c3cccc4ccccc34)cc12
54 to 57 °C | CN(C)CCn1ccc2cc(NS(=O)(=O)c3ccc4ccccc4c3)ccc21
171 to 173 °C | CC(C)N(c1ccccc1)c1ccc(NC(=O)CN2CCC(N3C(=O)OCc4ccccc43)CC2)cc1.Cl
240 to 242 °C | Cl.O=C(CCN1CCC(N2C(=O)OCc3ccccc32)CC1)Nc1ccc2c(c1)-c1ccccc1C2=O
265 to 268 °C | CCn1c2ccccc2c2cc(NC(=O)CN3CCC(N4C(=O)OCc5cc(Cl)ccc54)CC3)ccc21.Cl
90 to 95 °C | CCCN(CCC)CCc1c[nH]c2ccc(NS(=O)(=O)c3sc4ccc(Cl)cc4c3C)cc12
199 to 200 °C | Cc1cc2cc(NS(=O)(=O)c3ccc4ccccc4c3)ccc2n1CCN(C)C

melting point | Compound
154 to 156 °C | CCN(CC)CCc1c[nH]c2ccc(NS(=O)(=O)c3cccc4c(Cl)cccc34)cc12
125 to 130 °C | CCN(CC)CCc1c[nH]c2ccc(NS(=O)(=O)/C=C/c3ccccc3)cc12
203 °C (dec.) | CN1CCN(Cc2c[nH]c3ccc(NS(=O)(=O)/C=C/c4ccccc4)cc23)CC1
229 to 232 °C | CCn1c2ccccc2c2cc(NC(=O)CN3CCC(N4C(=O)OCc5cccc(C)c54)CC3)ccc21.Cl
85 to 90 °C | O=S(=O)(Nc1ccc2[nH]cc(CCN3CCOCC3)c2c1)c1ccc2ccccc2c1
201 to 203 °C | Cc1c(S(=O)(=O)Nc2ccc3[nH]cc(CCN4CCCC4)c3c2)sc2ccc(Cl)cc12
92 to 108 °C | O=S(=O)(Nc1ccc2c(ccn2CCCN2CCCCC2)c1)c1ccc2ccccc2c1
212 to 214 °C | O=S(=O)(Nc1ccc2[nH]cc(CCN3CCCC3)c2c1)c1cccc2ccccc12
180 to 182 °C | O=S(=O)(Nc1ccc2[nH]cc(CCN3CCCC3)c2c1)c1ccc2ccccc2c1
58 to 64 °C (dec.) | CCCN(CCC)CCc1c[nH]c2ccc(NS(=O)(=O)c3ccc4ccccc4c3)cc12
201 to 203 °C | CN(C)CCc1c[nH]c2ccc(NS(=O)(=O)c3cccc4c(Cl)cccc34)cc12
180 to 190 °C | CN(C)CCc1c[nH]c2ccc(NS(=O)(=O)c3ccc4ccccc4c3)cc12
234 to 235 °C | O=S(=O)(Nc1ccc2[nH]cc(CCN3CCOCC3)c2c1)c1cccc2cccnc12
162 to 167 °C | Cc1cccc2c1N(C1CCN(CC(=O)Nc3ccc(Oc4ccccc4)cc3)CC1)C(=O)OC2.Cl
129 to 131 °C | CN1CCN(CCc2c[nH]c3ccc(NS(=O)(=O)c4ccc5ccccc5c4)cc23)CC1
262 to 267 °C | Cl.O=C(CN1CCC(N2C(=O)OCc3cc(Cl)ccc32)CC1)Nc1ccc(Oc2ccccc2)cc1
139 to 141 °C | CN(C)CCn1ccc2cc(NS(=O)(=O)c3ccccc3)ccc21
234 to 237 °C | Cc1ccc2c(c1)COC(=O)N2C1CCN(CC(=O)Nc2ccc(Oc3ccccc3)cc2)CC1.Cl
